The test system of test [1] is HiBiT-tagged MYB protein in K562 cells. The test is described as follows: HiBiT protein abundance assay, MYB. Type of test: cell-based, human. To be noted: HiBiT-modified K562 cells, 24 hours, luminescence. The method, then: Compounds described herein were used to screen for effects on quantitative protein abundance using a HiBit assay system (Promega). Quantitative protein abundance was determined by measuring the protein levels of HiBit-tagged protein targets expressed in cell culture via luminescence using the Nano-Glo HiBiT Lytic Detection System, which uses a split complementation assay format to reconstitute NanoBiT enzyme to generate a luminescent signal. A protein abundance assay was developed such that endogenous protein targets could be modified with the HiBiT peptide tag and their abundance could be assessed after compound treatment. Briefly, K562 cell lines containing a HiBiT-modification were treated with various compounds described herein (e.g., compounds of Formulas (I), (II), or (III)). After treatment for 24 hours, the protein abundance of a specific target was determined by measuring luminescence.
• Promega Nano-Glo HiBiT Lytic Detection System (cat #N3030) • Corning 384-well TC-treated microplates (cat #3570) • Synthego Engineered Cells Knock-In Clones
Cells were maintained in IMDM with 10% FBS. Before the assay, cells were diluted with […] growth media (IMDM+1% FBS media) and were seeded in a 384-well plate at a density of 10000 cells/well (for each cell line listed in Table 5). Each compound was prepared as a 10-point 3-fold serial dilution in DMSO with the top dose at a final concentration of 10 μM in the well. Unmodified K562 cells were added at the previously specified density with DMSO to serve as an assay baseline and positive control (PC) and DMSO only with the respective modified cell lines was added to the negative control (NC) columns. Final DMSO concentration was kept at or below 0.25%. Treated cell plates were placed in an incubator at 37° C. with 5% CO2 for 24 hours. After 24 hours, 25 μL of Complete HiBit Lytic reagent was added to each well at room temperature (e.g. one plate requiring 10 mL Lytic Buffer, 100 μL LgBiT Protein, 200 μL Lytic Substrate), shaken for 5 minutes at 600 RPM, then left to sit for 10 minutes for signal to stabilize before reading on a Spark Cyto plate reader (Tecan) with a 500 ms measurement time.
To determine compound effects on protein abundance of each target in Table 5, the percent response for each respective cell line was calculated at each compound concentration as follows:
For the normalized response at each concentration, a four-parameter logistical regression was fit to the data and the response was interpolated at the 50% value to determine a concentration for protein abundance at 50% (IC50) the untreated control.
(The HiBiT peptide binds its large partner to form an active luciferase.)

A further test relates to MYB mRNA. The test is described as follows: Splicing RT-qPCR assay, MYB canonical (CJ) and alternative (AJ) junction mRNA. The class given is cell-based. To be noted: Homo sapiens, A673 or K562 cells, 24 hours treatment; for pIC50: decrease in CJ mRNA; for AC50: increase in AJ mRNA. The method, then: (§1) Compounds described herein were used to modulate RNA transcript abundance in cells. The expression of a target mRNA was measured by detecting the formation of an exon-exon junction in the canonical transcript (CJ). A compound mediated exon-inclusion event was detected by observing an increase in formation of a new junction with an alternative exon (AJ). Real-time qPCR assays were used to detect these splicing switches and interrogate the potency of various compounds towards different target genes. A high-throughput real time quantitative PCR (RT-qPCR) assay was developed to measure these two isoforms of the mRNA (CJ and AJ) for exemplary genes, such as HTT, SMN2, and MYB, together with a control housekeeping gene, GAPDH or GUSB or PPIA, used for normalization. Briefly, the A673 or K562 cell line was treated with various compounds described herein (e.g., compounds of Formula (I)). After treatment, the levels of the HTT, MYB, or SMN2 mRNA targets were determined from each sample of cell lysate by cDNA synthesis followed by qPCR.
(§2) • Cells-to-CT 1-step kit: ThermoFisher A25602, Cells-to-CT lysis reagent: ThermoFisher 4391851C, TaqMan™ Fast Virus 1-Step Master Mix: ThermoFisher 4444436 • GAPDH: VIC-PL, ThermoFisher 4326317E (Assay: Hs99999905_ml)—used for K562/suspension cell lines • GUSB: VIC-PL, ThermoFisher 4326320E (Assay: Hs99999908_ml)—used for K562/suspension cell lines • PPIA: VIC-PL, ThermoFisher 4326316E (Assay: Hs99999904_ml)—used for A673/adherent cell lines
(§3) The A673 cell line was cultured in DMEM with 10% FBS. Cells were diluted with full growth media and plated in a 96-well plate (15,000 cells in 100 ul media per well). The plate was incubated at 37° C. with 5% CO2 for 24 hours to allow cells to adhere. An 11-point 3-fold serial dilution of the compounds was made in DMSO then diluted in media in an intermediate plate. Compounds were transferred from the intermediate plate to the cell plate with the top dose at a final concentration of 10 uM in the well. Final DMSO concentration was kept at or below 0.25%. The cell plate was returned to the incubator at 37° C. with 5% CO2 for an additional 24 hours.
(§4) The K562 cell line was cultured in IMDM with 10% FBS. For K562, cells were diluted with full growth media and plated in either a 96-well plate (50,000 cells in 50 uL media per well) or a 384-well plate (8,000-40,000 cells in 45 uL media per well). An 11-point 3-fold serial dilution of the compounds were made in DMSO then diluted in media in an intermediate plate. Compound was transferred from the intermediate plate to the cell plate with the top dose at a final concentration of 10 uM in the well. Final DMSO concentration was kept at or below 0.25%. Final volume was 100 uL for 96-well plate and 50 uL for 384-well plate. The cell plate was then placed in an incubator at 37° C. with 5% CO2 for 24 hours.
(§5) The cells were then gently washed with 50 uL-100 uL cold PBS before proceeding to addition of lysis buffer. 30 uL-50 μL of room temperature lysis buffer with DNAse I (and optionally RNAsin) was added to each well. Cells were shaken/mixed thoroughly at room temperature for 5-10 minutes for lysis to take place and then 3 uL-5 μL of room temperature stop solution was added and wells were shaken/mixed again. After 2-5 minutes, the cell lysate plate was transferred to ice for RT-qPCR reaction setup. The lysates could also be frozen at −80° C. for later use.
(§6) In some cases, a direct lysis buffer was used. An appropriate volume of 3×lysis buffer (10 mM Tris, 150 mM NaCl, 1.5%-2.5% Igepal and 0.1-1 U/uL RNAsin, pH 7.4) was directly added to either K562 or A673 cells in media and mixed by pipetting 3 times. The plates were then incubated at room temperature with shaking/rocking for 20-50 minutes to allow for lysis to take place. After this time, the cell lysate plate was transferred to ice to set up for the RT-qPCR reactions. The lysates could also be frozen at −80° C. for later use. […]
(In qPCR the cycle at which signal appears reflects the starting amount.)

The test system of another test is HTT mRNA. The test is described as follows: Splicing RT-qPCR assay, HTT canonical (CJ) and alternative (AJ) junction mRNA. Type of test: cell-based. The settings on record: Homo sapiens, A673 or K562 cells, 24 hours treatment; for pIC50: decrease in CJ mRNA; for AC50: increase in AJ mRNA. Here is the method: as §1, §2, §3, §4, §5, §6

Among the data in patent publication US20240366612A1, “COMPOUNDS AND METHODS FOR MODULATING NUCLEIC ACID SPLICING” (REMIX THERAPEUTICS INC., priority 2021, published 2024) are IC50 and AC50 values, retold here.

pIC50: −log10 of the molar value. Structures can show the parent of a compound that is named as a salt. Some results are limits rather than exact numbers.

As to `Cc1cn2cc(-c3cc4ncn([C@H]5CCNC[C@@H]5F)c(=O)c4s3)cc(F)c2n1` (relative stereo) [Compound 272, trans-6-{8-fluoro-2-methylimidazo[1,2-a]pyridin-6-yl}-3-[3-fluoropiperidin-4-yl]thieno[3,2-d]pyrimidin-4-one], the pIC50 (in test [1]; in the test on MYB mRNA; with HTT mRNA) was 5.00 to 6.00 throughout. Also, the results for the AC50 with MYB mRNA and in the test on HTT mRNA were 1000 to 10000 nM and above 10000 nM, respectively.

For the compound `Cc1cn2cc(-c3cc4ncn([C@H]5CCNC[C@H]5F)c(=O)c4s3)cc(F)c2n1` (relative stereo) [Compound 273, cis-6-{8-fluoro-2-methylimidazo[1,2-a]pyridin-6-yl}-3-[3-fluoropiperidin-4-yl]thieno[3,2-d]pyrimidin-4-one], the results for the pIC50 (in test [1]; in the test on MYB mRNA; in the test on HTT mRNA) were 5.00 to 6.00, 6.00 to 7.00 and 6.00 to 7.00, respectively. In addition, the AC50 – broadly, the concentration at which the activity in the assay is half-maximal – in the test on MYB mRNA lay within 100 to 1000 nM; in the test on HTT mRNA, 1000 to 10000 nM.

Consider `Cc1cn2cc(-c3cc4ncn([C@H]5CCN[C@H](C)C5)c(=O)c4s3)cc(F)c2n1` (relative stereo) [Compound 277, 6-{8-fluoro-2-methylimidazo[1,2-a]pyridin-6-yl}-3-[(trans)-2-methylpiperidin-4-yl]thieno[3,2-d]pyrimidin-4-one], for which the pIC50 (in test [1]; with MYB mRNA; with HTT mRNA) was 6.00 to 7.00 in each case. Also, the AC50 in the test on MYB mRNA and in the test with HTT mRNA was 100 to 1000 nM each time.

Take `Cc1cn2cc(-c3cc4ncn([C@H]5CCN[C@@H](C)C5)c(=O)c4s3)cc(F)c2n1` (relative stereo) [Compound 278, 6-{8-fluoro-2-methylimidazo[1,2-a]pyridin-6-yl}-3-[(cis)-2-methylpiperidin-4-yl]thieno[3,2-d]pyrimidin-4-one hydrochloride]: the pIC50 (in test [1]; in the test on MYB mRNA; in the test on HTT mRNA) was 6.00 to 7.00 in each case. The AC50 in the test on MYB mRNA and with HTT mRNA was 100 to 1000 nM throughout.

In the case of `Cc1cc(-c2cc(=O)n3cc(N4CCN(C)CC4)sc3n2)cc2cn(C)nc12` [Compound 109, 7-(2,7-dimethyl-2H-indazol-5-yl)-2-(4-methylpiperazin-1-yl)-5H-thiazolo[3,2-a]pyrimidin-5-one], the pIC50 (in test [1]; with MYB mRNA; with HTT mRNA) was below 5.00 throughout. In addition, the AC50 is 1000 to 10000 nM with MYB mRNA and above 10000 nM with HTT mRNA.

As to `Cc1cc(-c2cc(=O)n3nc(N4CCN(C)CC4)sc3n2)cc2cn(C)nc12` [Compound 157, 7-(2,7-dimethyl-2H-indazol-5-yl)-2-(4-methylpiperazin-1-yl)-5H-[1,3,4]thiadiazolo[3,2-a]pyrimidin-5-one], the pIC50 (in test [1]; in the test with MYB mRNA; in the test on HTT mRNA) was below 5.00 each time. In addition, the AC50 with MYB mRNA and in the test on HTT mRNA was above 10000 nM each time.

On to `Cc1cn2cc(-c3cc(=O)n4nc(N5CCN(C)CC5)sc4n3)cc(F)c2n1` [Compound 159, 7-(8-fluoro-2-methylimidazo[1,2-a]pyridin-6-yl)-2-(4-methylpiperazin-1-yl)-5H-[1,3,4]thiadiazolo[3,2-a]pyrimidin-5-one], for which the pIC50 (in test [1]; in the test on MYB mRNA; in the test with HTT mRNA) was 5.00 to 6.00 throughout. Moreover, the AC50 with MYB mRNA and with HTT mRNA was 1000 to 10000 nM in each case.

For `Cc1cn2nc(-c3cc(=O)n4cc(N(C)C5CC(C)(C)NC(C)(C)C5)sc4n3)cc(C)c2n1` [Compound 205, 7-(2,8-dimethylimidazo[1,2-b]pyridazin-6-yl)-2-(methyl(2,2,6,6-tetramethylpiperidin-4-yl)amino)-5H-thiazolo[3,2-a]pyrimidin-5-one], the negative logarithm of the IC50 (pIC50) (in test [1]; in the test with MYB mRNA; in the test with HTT mRNA) was 5.00 to 6.00 throughout. The AC50 in the test on MYB mRNA and with HTT mRNA was 1000 to 10000 nM in each case.

For `Cc1cc(-c2nn3c(=O)cc(N4CCNCC4)nc3s2)cc2cn(C)nc12` [Compound 206, 2-(2,7-dimethyl-2H-indazol-5-yl)-7-(piperazin-1-yl)-5H-[1,3,4]thiadiazolo[3,2-a]pyrimidin-5-one], the pIC50 (in test [1]; in the test with MYB mRNA; in the test with HTT mRNA) was 5.00 to 6.00 each time. Moreover, the AC50 in the test on MYB mRNA and in the test with HTT mRNA was 1000 to 10000 nM in each case.

For the compound `Cc1cn2cc(-c3cc(=O)n4cc(N5CCNC6(CC6)C5)sc4n3)cc(F)c2n1` [Compound 207, 7-(8-fluoro-2-methylimidazo[1,2-a]pyridin-6-yl)-2-(4,7-diazaspiro[2.5]octan-7-yl)-5H-thiazolo[3,2-a]pyrimidin-5-one], the pIC50 (commonly −log10 of the IC50, conventionally taken in molar units) in test [1] was below 5.00; in the test on MYB mRNA it was 5.00 to 6.00; in the test on HTT mRNA, below 5.00. The AC50 with MYB mRNA and in the test with HTT mRNA was above 10000 nM each time.

With `Cc1cn2cc(-c3cn4c(=O)cc(N5CCNC6(CC6)C5)nc4s3)cc(F)c2n1` [Compound 208, 2-(8-fluoro-2-methylimidazo[1,2-a]pyridin-6-yl)-7-(4,7-diazaspiro[2.5]octan-7-yl)-5H-thiazolo[3,2-a]pyrimidin-5-one], the pIC50 (in test [1]; in the test with MYB mRNA; with HTT mRNA) was 5.00 to 6.00 throughout. For the same compound, the AC50 with MYB mRNA and in the test with HTT mRNA was 1000 to 10000 nM in each case.
